Here are results for 46 compounds from patent US20250154145A1, “OXER1 ANTAGONISTS AND USES THEREOF” (Fairhaven Pharmaceuticals Ins., priority 2021, published 2025).

The assay has as its system neutrophils. Description: Neutrophil calcium flux assay (5-OXO-ETE-stimulated, Indo-1 fluorescence). The format is cell-based. To be noted: 5-OXO-ETE-stimulated calcium flux. On the procedure:
After isolation, neutrophils were resuspended in PBS without calcium and Magnesium (PBS −/−) at a concentration of 5×10^6 cells/ml. 2ul of Indo-1 (1 mM) were added per ml of cells. After incubation at 37° C. for 30 minutes, cells were washed twice in PBS −/− and resuspended at 5×10^6 cells/ml in assay buffer (HBSS 1× with calcium and magnesium and […]). In a 96-well Black optical clear bottom plate 100 μL of neutrophil were dispensed to each well. After incubation at 37° C. for 5 minutes, 50 μL of assay buffer or 3× antagonist were added and incubated for 5 min in a Tecan Spark plate reader (Tecan, Morrisville, NC). Baseline was measured for 30 sec (wavelength setup: excitation: 331 nm and emission:410 nm). When baseline is stable, 50p of 5-OXO-ETE at 200 nM (4×) or HBSS was added to appropriate wells. Fluorescence was measured every 5 seconds for 30 cycles. Results are expressed as Net fluorescence (FLU minus Background and injection peak). All data were analyzed using GraphPad Prism version 9 for Windows (GraphPad, San Diego, CA).
(In general: A change in cytosolic calcium serves as a functional read-out for many receptors and channels.)

In general, IC50 refers to the concentration at which inhibition is half-maximal.

Take `C[C@@H](CC(=O)c1c(CCCCCCC#CC2CC(F)(F)C2)n(C)c2ccc(Cl)cc12)Cc1nnn[nH]1` [Compound I-352]: the IC50 (Neutrophil) is under 100 nM. Still for that read-out and setting: in the case of `CC(CC(=O)O)CC(=O)c1c(CCCCOCc2cc(C#N)ccn2)n(C)c2ncc(Cl)cc12` (stereo not shown) [Compound I-444] it was over 300 nM; in that of `C[C@H](CC(=O)O)CC(=O)c1c(CCCCCCc2cnccn2)n(C)c2ccc(Cl)cc12` [Compound I-81], 100 to 300 nM; in that of `CC(CC(=O)O)CC(=O)c1c(CCCCOCc2ccc(F)c(Cl)c2)n(C)c2ncc(C#N)cc12` (stereo not shown) [Compound I-291], under 100 nM. Still for that read-out and setting: the value for `C[C@@H](CC(=O)O)CC(=O)c1c(CCCCCCCC#CC2CC(F)(F)C2)n(C)c2ncc(C#N)cc12` [Compound I-336] was over 300 nM. The same measure, in the same setting: in the case of `C[C@H](CC(=O)O)CC(=O)c1c(CCOCCNc2cccc(F)c2)n(C)c2ncc(C#N)cc12` [Compound I-246] it was 100 to 300 nM; in that of `CC(C)C#CCCCCCc1c(C(=O)C[C@H](C)CC(=O)O)c2cc(Cl)ccc2n1C` [Compound I-114], over 300 nM. For `Cn1c(CCCCOCc2cccc(Cl)c2)c(C(=O)N2CC[C@H](C(=O)O)C2)c2cc(C#N)cnc21` [Compound I-179], under “Neutrophil”, the IC50 is over 300 nM.

For `COc1cnc2c(c1)c(C(=O)CC(C)CC(=O)O)c(CCCCOCc1ccccc1)n2C` (stereo not shown) [Compound I-103], the IC50 (Neutrophil) is over 300 nM.

As to `C[C@H](CC(=O)O)CC(=O)c1c(CCOCCNc2cccnc2)n(C)c2ccc(Cl)cc12` [Compound I-137], the IC50 (Neutrophil) was over 300 nM. For the compound `C[C@H](CC(=O)O)CC(=O)c1c(CCCCCNc2cccnc2)n(C)c2ccc(Cl)cc12` [Compound I-141], the IC50 (Neutrophil) is over 300 nM. As for `C[C@H](CC(=O)O)CC(=O)c1c(CCCCOCc2cccc(C#N)c2)n(C)c2cc(F)ccc12` [Compound I-413], the IC50 (Neutrophil) is under 100 nM.

With `Cn1c(CCCCCCC#CC2CC(F)(F)C2)c(C(=O)N2CC[C@H](c3nnn[nH]3)C2)c2cc(Cl)ccc21` [Compound I-353], for the setting “Neutrophil”, the IC50 is under 100 nM.

As to `C[C@H](CC(=O)N[C@@H](CCC(N)=O)C(=O)O)CC(=O)c1c(CCCCOCc2ccccc2)n(C)c2ncc(C#N)cc12` [Compound I-460], the IC50 (Neutrophil) is over 300 nM. As to `CC(CC(=O)O)CC(=O)c1c(CCCCCC(O)c2cccc(C#N)c2)n(C)c2ncc(Cl)cc12` (single isomer, unassigned) [Compound I-307], the IC50 is under 100 nM.

On to `CC(CCC(=O)c1c(CCCCCCc2cccc(Cl)c2)n(C)c2ccc(Cl)cc12)C(=O)O` (stereo not shown) [Compound I-150], for which the concentration for half-maximal inhibition (IC50) (Neutrophil) was over 300 nM.

Turning to `CC(C)COCCc1c(C(=O)C[C@H](C)CC(=O)O)c2cc(Cl)ccc2n1C` [Compound I-72], the IC50 (Neutrophil) is over 300 nM. The same measure, in the same setting: the value for `Cn1c(CCCCCCc2cccc(Cl)c2)c(C(=O)N2CC(CC(=O)O)C2)c2cc(Cl)cnc21` [Compound I-154] was over 300 nM; that for `COc1ccc2c(c1)c(C(=O)C[C@H](C)CC(=O)O)c(CCCCCCc1cccc(Cl)c1)n2C` [Compound I-96] was under 100 nM.

In the case of `C[C@@H](CC(=O)O)CC(=O)c1c(CCCCCCc2cccc(Cl)c2)n(CCO)c2ncc(C#N)cc12` [Compound I-280], the IC50 (Neutrophil) is over 300 nM. In the case of `C[C@H](CC(=O)c1c(CCCCOCc2ccccc2)n(C)c2ncc(C#N)cc12)Cc1nnn[nH]1` (stereo in doubt) [Compound I-360], the IC50 (Neutrophil) is over 300 nM.

Consider `C[C@H](CC(=O)O)CC(=O)c1c(CCCCCOCC#CC2CC(F)(F)C2)n(C)c2ccc(Cl)cc12` [Compound I-337], for which the IC50 (Neutrophil) was under 100 nM.

Turning to `CC(CC(=O)O)CC(=O)c1c(CCCCOCc2cccc(Cl)c2)n(C[C@@H](O)CO)c2ncc(Cl)cc12` (stereo partly shown) [Compound I-376], the IC50 (Neutrophil) was over 300 nM.

Take `C[C@H](CC(=O)O)CC(=O)c1c(CCCCOCc2cccc(C#N)c2)n(C)c2c(F)cc(Cl)cc12` [Compound I-415]: the IC50 (Neutrophil) was over 300 nM.

Consider `Cn1c(CCCCCCc2cccc(Cl)c2)c(C(=O)N2CC(CC(=O)O)C2)c2cc(Cl)ccc21` [Compound I-152], for which the IC50 (Neutrophil) was over 300 nM.

Regarding `Cn1c(CCCCCCC#CC2CC(F)(F)C2)c(C(=O)N2CC[C@H](c3noc(=O)[nH]3)C2)c2cc(C#N)cnc21` [Compound I-456], the IC50 (Neutrophil) was over 300 nM. The same measure, in the same setting: the value for `Cn1c(CCCCCCc2cccc(Cl)c2)c(C(=O)N2CCC[C@@H](C(=O)O)C2)c2cc(Cl)ccc21` [Compound I-156] was over 300 nM; that for `CC(CNC(=O)c1c(CCCCOCc2cccc(Cl)c2)n(C)c2ncc(C#N)cc12)C(=O)O` (stereo not shown) [Compound I-242] was over 300 nM; that for `CC(CC(=O)O)CC(=O)c1c(CCCCCCc2cccc(Cl)c2)n(C[C@@H](O)CO)c2ncc(C(N)=O)cc12` (stereo partly shown) [Compound I-283] was 100 to 300 nM. The same measure, in the same setting: in the case of `Cn1c(COCCCCC#CC2CC(F)(F)C2)c(C(=O)N2CC[C@H](C(=O)O)C2)c2cc(Cl)ccc21` [Compound I-349] it was over 300 nM; in that of `CC(CC(=O)O)CC(=O)c1c(CCCCC#Cc2ccc(F)nc2)n(C)c2ncc(Cl)cc12` (stereo not shown) [Compound I-227], over 300 nM. On the same count and under the same terms, in the case of `C[C@H](CC(=O)O)CC(=O)c1c(CCCCOCC2(C(F)(F)F)CC2)n(C)c2ccc(Cl)cc12` [Compound I-74] it was over 300 nM; in that of `CC(CC(=O)O)CC(=O)c1c(CCCOCC(F)(F)c2cccc(Cl)c2)n(C)c2ccc(Cl)cc12` (stereo not shown) [Compound I-430], under 100 nM; in that of `C[C@H](CC(=O)O)CC(=O)c1c(CCCCCOc2cnccn2)n(C)c2ccc(Cl)cc12` [Compound I-132], over 300 nM. In the case of `C[C@@H](CC(=O)O)CC(=O)c1c(CCCCOCc2ccc(F)cc2)n(C)c2ncc(C#N)cc12` [Compound I-369], the IC50 (Neutrophil) was over 300 nM. For the compound `Cn1c(CCCCCC#CC2CC(F)(F)C2)c(C(=O)N2CC[C@H](C(=O)O)C2)c2cc(C#N)cnc21` [Compound I-343], the IC50 (Neutrophil) was over 300 nM. As for `C[C@H](CC(=O)O)CC(=O)c1c(CCCCCCc2cccc(Cl)c2)n(C)c2ccc(OC(F)(F)F)cc12` [Compound I-97], for the setting “Neutrophil”, the IC50 was under 100 nM. Same read-out and setting: in the case of `C[C@H](CC(=O)O)CC(=O)c1c(CCCCCCC#CC2CC(F)(F)C2)n(C)c2ncc(C#N)cc12` [Compound I-328] it was under 100 nM; in that of `C[C@H](CC(=O)O)N(C)C(=O)c1c(CCCCCCc2cccc(Cl)c2)n(C)c2ccc(Cl)cc12` [Compound I-239], over 300 nM. Take `CC(CC(=O)O)CC(=O)c1c(CCCCCC(O)c2cccc(C(=O)N(C)C)c2)n(C)c2ncc(C#N)cc12` (single isomer, unassigned) [Compound I-317]: the IC50 is under 100 nM.

Turning to `C[C@@H](CC(=O)O)CC(=O)c1c(CCCCCCC#CC2COC2)n(C)c2ccc(Cl)cc12` [Compound I-333], the IC50 (Neutrophil) is over 300 nM. On the same count and under the same terms, in the case of `CC(CC(=O)O)CC(=O)c1c(CCCCOCc2cccc(C#N)c2)n(C)c2c(F)cc(C#N)cc12` (stereo not shown) [Compound I-414] it was over 300 nM; in that of `CC[C@H](CC(=O)O)CC(=O)c1c(CCCCOCc2ccccc2)n(C)c2ncc(C#N)cc12` [Compound I-438], over 300 nM; in that of `C[C@@H](CC(=O)O)CC(=O)c1c(CCCCOCc2cccc(Cl)c2)n(C)c2cnccc12` [Compound I-406], over 300 nM. Still for that read-out and setting: in the case of `Cn1c(CCCCCCC#CC2CC(F)(F)C2)c(C(=O)N2CC[C@H](C(=O)O)C2)c2cc(Br)cnc21` [Compound I-345] it was 100 to 300 nM; in that of `C[C@@H](CC(=O)O)CC(=O)c1c(CCCCOCc2cccc(OC(F)(F)F)c2)n(C)c2cnccc12` [Compound I-409], over 300 nM.
